{"source": "patent US9955691B2", "about": "“Macrocyclic picolinamides as fungicides” (DOW AGROSCIENCES LLC, priority 2014, dated 2018)", "type_in_all_cases": "in vivo", "key": {"Puccinia triticina": {"tested_on": "Puccinia triticina", "test": "Fungicidal activity: Wheat Brown Rust (PUCCRT)", "conditions": "for pest or weed control at 100 µg/mL: High Volume (100 ppm); for pest or weed control at 121.5 g/ha: Low Volume (121.5 g/H)", "outline": "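Percent control of brown rust was derived from 0-100% severity on treated versus untreated first leaves. Yuma wheat seedlings were spray-treated to run-off (acetone/water, Triton X-100) and inoculated with P. triticina spores before or after treatment, then held overnight in dark dew at 22° C and moved to a 24° C greenhouse.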"}, "Alternaria solani": {"tested_on": "Alternaria solani", "test": "Fungicidal activity: Tomato Early Blight (ALTESO)", "conditions": "100 ppm, 1 DP (1 Day Protectant)", "description": "Technical grades of materials were dissolved in acetone, which were then mixed with nine volumes of water containing 110 ppm Triton X-100. The fungicide solutions were applied onto wheat seedlings using an automated booth sprayer to run-off. All sprayed plants were allowed to air dry prior to further handling. All fungicides were evaluated using the aforementioned method for their activity vs. all target diseases, unless stated otherwise. Wheat leaf blotch and brown rust activity were also evaluated using track spray applications, in which case the fungicides were formulated as EC formulations, containing 0.1% Trycol 5941 in the spray solutions. Wheat plants (variety Yuma) were grown from seed in a greenhouse in 50% mineral soil/50% soil-less Metro mix until the first leaf was fully emerged, with 7-10 seedlings per pot. These plants were inoculated with an aqueous spore suspension of Septoria tritici either prior to or after fungicide treatments. After inoculation the plants were kept in 100% relative humidity (one day in a dark dew chamber followed by two to three days in a lighted dew chamber at 20° C.) to permit spores to germinate and infect the leaf. The plants were then transferred to a greenhouse set at 20° C. for disease to develop. When disease symptoms were fully expressed on the 1st leaves of untreated plants, infection levels were assessed on a scale of 0 to 100 percent disease severity. Percent disease control was calculated using the ratio of disease severity on treated plants relative to untreated plants. Evaluation of Fungicidal Activity: Tomato Early Blight (Alternaria solani; Bayer Code […]) Tomato plants (variety Outdoor Girl) were propagated in soil-less Metro mix, with each pot having one plant, and used when 12 to 14 days old. Test plants were inoculated with an aqueous spore suspension of Alternaria solani 24 hr after fungicide treatments. After inoculation the plants were kept in 100% relative humidity (one day in a dark dew chamber followed by two to three days in a lighted dew chamber at 20° C.) to permit spores to germinate and infect the leaf. The plants were then transferred to a growth room at 22° C. for disease to develop. Fungicide formulation, application and disease assessment on the sprayed leaves followed the procedures as described in the Example A."}, "[1]": {"tested_on": "Mycosphaerella graminicola; Anamorph: Septoria tritici", "test": "Fungicidal activity: Leaf Blotch of Wheat (SEPTTR)", "conditions": "Zymoseptoria tritici, wheat leaf blotch; for pest or weed control at 100 µg/mL: High Volume (100 ppm); for pest or weed control at 121.5 g/ha: Low Volume (121.5 g/H)", "outline": "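Compounds were dissolved in acetone, diluted with nine volumes of water containing 110 ppm Triton X-100, and sprayed to run-off on first-leaf Yuma wheat seedlings inoculated with Septoria tritici spores before or after treatment. Plants were held in a dew chamber, then a 20° C. greenhouse. Percent control was derived from disease severity relative to untreated plants.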"}, "[2]": {"conditions": "24 h, 1 Day Protectant, read-out: PUCCRT 1 DP disease control"}, "[3]": {"conditions": "72 h, 3 Day Curative, read-out: PUCCRT 3 DC disease control"}, "[4]": {"conditions": "24 h, 1 Day Protectant, read-out: SEPTTR 1 DP disease control"}, "[5]": {"conditions": "72 h, 3 Day Curative, read-out: SEPTTR 3 DC disease control"}}, "note": "Like-named read-outs stand apart in the source and are kept apart here.", "data": [{"compound": "CCCC[C@@H]1[C@@H](Cc2ccccc2)COC[C@H](NC(=O)c2nccc(OC)c2OCOC(=O)C(C)C)C(=O)O[C@H]1C", "note": "[compound 1]", "values": [{"measurement": "pest or weed control at 100 µg/mL", "setting": "Puccinia triticina; [2]", "result": "> 70", "unit": "%"}, {"measurement": "pest or weed control at 121.5 g/ha", "setting": "Puccinia triticina; [2]", "result": "> 70", "unit": "%"}, {"measurement": "pest or weed control at 100 µg/mL", "setting": "Puccinia triticina; [3]", "result": "> 70", "unit": "%"}, {"measurement": "pest or weed control at 121.5 g/ha", "setting": "Puccinia triticina; [3]", "result": "< 70", "unit": "%"}, {"measurement": "ALTESO disease control rating", "setting": "Alternaria solani", "result": "A (>70)"}, {"measurement": "pest or weed control at 100 µg/mL", "setting": "[1]; [4]", "result": "> 70", "unit": "%"}, {"measurement": "pest or weed control at 121.5 g/ha", "setting": "[1]; [4]", "result": "> 70", "unit": "%"}, {"measurement": "pest or weed control at 100 µg/mL", "setting": "[1]; [5]", "result": "> 70", "unit": "%"}, {"measurement": "pest or weed control at 121.5 g/ha", "setting": "[1]; [5]", "result": "> 70", "unit": "%"}]}, {"compound": "CCCC[C@@H]1[C@@H](Cc2ccc(C(F)(F)F)cc2)COC[C@H](NC(=O)c2nccc(OC)c2OCOC(C)=O)C(=O)O[C@H]1C", "note": "[compound 16]", "values": [{"measurement": "pest or weed control at 121.5 g/ha", "setting": "Puccinia triticina; [2]", "result": "> 70", "unit": "%"}, {"measurement": "pest or weed control at 121.5 g/ha", "setting": "Puccinia triticina; [3]", "result": "> 70", "unit": "%"}, {"measurement": "ALTESO disease control rating", "setting": "Alternaria solani", "result": "A (>70)"}, {"measurement": "pest or weed control at 121.5 g/ha", "setting": "[1]; [4]", "result": "> 70", "unit": "%"}, {"measurement": "pest or weed control at 121.5 g/ha", "setting": "[1]; [5]", "result": "> 70", "unit": "%"}]}, {"compound": "COc1ccnc(C(=O)N[C@H]2COC[C@H](CC3CC3)[C@@H](c3ccccc3)[C@H](C)OC2=O)c1OC(C)=O", "note": "[compound 100]", "values": [{"measurement": "pest or weed control at 121.5 g/ha", "setting": "Puccinia triticina; [2]", "result": "> 70", "unit": "%"}, {"measurement": "pest or weed control at 121.5 g/ha", "setting": "Puccinia triticina; [3]", "result": "> 70", "unit": "%"}, {"measurement": "ALTESO disease control rating", "setting": "Alternaria solani", "result": "A (>70)"}, {"measurement": "pest or weed control at 121.5 g/ha", "setting": "[1]; [4]", "result": "> 70", "unit": "%"}, {"measurement": "pest or weed control at 121.5 g/ha", "setting": "[1]; [5]", "result": "> 70", "unit": "%"}]}, {"compound": "COc1ccnc(C(=O)N[C@H]2COC[C@H](Cc3ccccc3)[C@@H](Cc3ccccc3)[C@H](C)OC2=O)c1OC(C)=O", "note": "[compound 27]", "values": [{"measurement": "pest or weed control at 121.5 g/ha", "setting": "Puccinia triticina; [2]", "result": "> 70", "unit": "%"}, {"measurement": "pest or weed control at 121.5 g/ha", "setting": "Puccinia triticina; [3]", "result": "> 70", "unit": "%"}, {"measurement": "ALTESO disease control rating", "setting": "Alternaria solani", "result": "A (>70)"}, {"measurement": "pest or weed control at 121.5 g/ha", "setting": "[1]; [4]", "result": "> 70", "unit": "%"}, {"measurement": "pest or weed control at 121.5 g/ha", "setting": "[1]; [5]", "result": "> 70", "unit": "%"}]}, {"compound": "COc1ccnc(C(=O)N[C@H]2COC[C@H](Cc3ccccc3)[C@@H](Cc3ccccc3)[C@H](C)OC2=O)c1OCOC(C)=O", "note": "[Cmpd. 3, ((2-(((3S,7R,8R,9S)-7,8-dibenzyl-9-methyl-2-oxo-1,5-dioxonan-3-yl)carbamoyl)-4-methoxypyridin-3-yl)oxy)methyl acetate]", "values": [{"measurement": "pest or weed control at 100 µg/mL", "setting": "Puccinia triticina; [2]", "result": "> 70", "unit": "%"}, {"measurement": "pest or weed control at 121.5 g/ha", "setting": "Puccinia triticina; [2]", "result": "> 70", "unit": "%"}, {"measurement": "pest or weed control at 100 µg/mL", "setting": "Puccinia triticina; [3]", "result": "< 70", "unit": "%"}, {"measurement": "pest or weed control at 121.5 g/ha", "setting": "Puccinia triticina; [3]", "result": "> 70", "unit": "%"}, {"measurement": "ALTESO disease control rating", "setting": "Alternaria solani", "result": "A (>70)"}, {"measurement": "pest or weed control at 100 µg/mL", "setting": "[1]; [4]", "result": "> 70", "unit": "%"}, {"measurement": "pest or weed control at 121.5 g/ha", "setting": "[1]; [4]", "result": "> 70", "unit": "%"}, {"measurement": "pest or weed control at 100 µg/mL", "setting": "[1]; [5]", "result": "> 70", "unit": "%"}, {"measurement": "pest or weed control at 121.5 g/ha", "setting": "[1]; [5]", "result": "> 70", "unit": "%"}]}, {"compound": "COc1ccnc(C(=O)N[C@H]2COC[C@H](c3ccccc3)[C@@H](c3ccccc3)[C@H](C)OC2=O)c1OCOC(C)=O", "note": "[compound 7]", "values": [{"measurement": "pest or weed control at 100 µg/mL", "setting": "Puccinia triticina; [2]", "result": "> 70", "unit": "%"}, {"measurement": "pest or weed control at 121.5 g/ha", "setting": "Puccinia triticina; [2]", "result": "> 70", "unit": "%"}, {"measurement": "pest or weed control at 100 µg/mL", "setting": "Puccinia triticina; [3]", "result": "> 70", "unit": "%"}, {"measurement": "pest or weed control at 121.5 g/ha", "setting": "Puccinia triticina; [3]", "result": "> 70", "unit": "%"}, {"measurement": "ALTESO disease control rating", "setting": "Alternaria solani", "result": "A (>70)"}, {"measurement": "pest or weed control at 100 µg/mL", "setting": "[1]; [4]", "result": "> 70", "unit": "%"}, {"measurement": "pest or weed control at 121.5 g/ha", "setting": "[1]; [4]", "result": "> 70", "unit": "%"}, {"measurement": "pest or weed control at 100 µg/mL", "setting": "[1]; [5]", "result": "> 70", "unit": "%"}, {"measurement": "pest or weed control at 121.5 g/ha", "setting": "[1]; [5]", "result": "> 70", "unit": "%"}]}]}
